In patent US4812583A, “Substituted acyloxyalkylphenylethylene inhibitors of 3-hydroxy-3-methylglutaryl-coa reductase” (American Home Products Corporation, priority 1987, dated 1989):
Read-outs that look alike come from different tables or passages of the source.

What was measured:
[1] = target: T1, HMG-CoA Reductase (Rattus norvegicus, UniProt P51639); assay: Inhibition of HMG-CoA reductase (rat liver microsomal fraction, [14C] HMG-CoA); type: biochemical; details: rat liver microsomal enzyme, pH 7.5, 37° C., 20 min
T1 construct: the microsomal fraction is isolated by differential ultra centrifugation to obtain the HMG-CoA reductase enzyme; from tissue; host or cells: rat liver, microsomal fraction (cholestyramine-fed rats)
T1 sequence (P51639 1-887): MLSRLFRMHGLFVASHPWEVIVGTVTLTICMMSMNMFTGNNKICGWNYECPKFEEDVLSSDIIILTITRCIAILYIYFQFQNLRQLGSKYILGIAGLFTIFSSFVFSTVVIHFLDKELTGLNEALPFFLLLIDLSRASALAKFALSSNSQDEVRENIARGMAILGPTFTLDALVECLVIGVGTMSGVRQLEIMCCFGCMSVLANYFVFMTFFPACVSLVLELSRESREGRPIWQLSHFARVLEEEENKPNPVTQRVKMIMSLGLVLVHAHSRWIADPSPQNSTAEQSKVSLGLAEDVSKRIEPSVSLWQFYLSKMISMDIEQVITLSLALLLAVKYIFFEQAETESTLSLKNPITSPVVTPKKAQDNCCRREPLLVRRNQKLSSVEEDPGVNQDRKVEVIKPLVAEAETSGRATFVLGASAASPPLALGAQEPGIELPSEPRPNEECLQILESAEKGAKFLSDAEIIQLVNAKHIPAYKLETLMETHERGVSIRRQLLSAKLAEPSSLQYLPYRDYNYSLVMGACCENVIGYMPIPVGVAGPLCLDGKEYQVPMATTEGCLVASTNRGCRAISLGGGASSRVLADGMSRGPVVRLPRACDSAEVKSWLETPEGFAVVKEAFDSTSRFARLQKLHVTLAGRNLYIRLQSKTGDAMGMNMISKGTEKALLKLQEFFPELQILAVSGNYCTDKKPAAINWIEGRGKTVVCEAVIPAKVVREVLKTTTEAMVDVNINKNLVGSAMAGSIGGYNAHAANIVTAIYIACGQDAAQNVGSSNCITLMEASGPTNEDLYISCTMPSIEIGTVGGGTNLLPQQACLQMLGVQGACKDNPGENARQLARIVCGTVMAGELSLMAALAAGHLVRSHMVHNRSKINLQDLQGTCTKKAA
Excerpt: The HMG-CoA reductase inhibitory properties of representative compounds of this invention were established by subjecting the compounds to the following standard experimental test procedure adapted from Rodwell et al., Adv. Lipid Res. 14 1, 1976; Endo et al., FEBS Letters 72 323, 1976; and Tanzawa et al., Biochemia et Biophysica Acta 488 97, 1977.
Rat livers obtained from rats fed on a diet containing 3% cholestyramine and maintained on a reverse lighting regimen for three weeks are homogenized and the microsomal fraction is isolated by differential ultra centrifugation to obtain the HMG-CoA reductase enzyme. To a preincubated (five minutes at 37° C.) solution of the compound being tested (as either the lactone and/or dihydroxy sodium carboxylate in amounts from 10^-3 to 10^-6 M) in TEDKS100 pH (Tris® 40 mM; EDTA 1 mM; dithiothreitol 5 mM; KCl 70 mM; sucrose 100 mM) 7.5 buffer or DMSO dissolved in an assay medium containing 20 μl of 2.5M KCl; 20 μl NADPH (reduced nicotinamide adenine dinucleotide phosphate) (7.5 mM); and 40 μl of labeled (RS) HMG-CoA (3-^14 C; […]; 200 μM) is added 10 μl of preincubated (five minutes at 37° C.) microsomal fraction (produced above) to obtain a total volume of 125 μl. After a twenty minute incubation period at 37° C., reaction of the enzyme is terminated by addition of 10 μl of 70% of HClO4. The assay tubes are then centrifuged for two minutes in a Beckman microfuge II.
To 100 μl of the supernatant liquid is added 10 μl of non-radioactivemevalonic acid lactone (0.25M in 8 mM H2 SO4). An aliquot of the sample is eluted with 8 mM H2 SO4 through Bio Rad Aminex HPX-87H (HPLC; Hewlett-Packard Model 1084B) at a flow rate of 1 mL/minute. The effluent is fractionated, Hydrofluor® is added and radioactivity of the [^14 C] mevalonolactone produced by reduction of [^14 C] HMG-CoA determined with a scintillation counter.
The percent inhibition of HMG-CoA reductase activity is obtained by comparison with a control assay devoid of the test compound. The inhibitory concentration (IC50) is calculated for the various test compounds.

[2] = system: biosynthesis of cholesterol; details: background; cited from earlier work
[3] = Dihydroxycarboxylate form (dihydroxy sodium carboxylate), read-out: Inhibition of HMG-CoA Reductase (IC50, M), Dihydroxycarboxylate
[4] = Lactone form, read-out: Inhibition of HMG-CoA Reductase (IC50, M), Lactone

SMILES | IC50 [1, 3] [M] | IC50 [1, 4] [M] | inhibition of cholesterol biosynthesis, in words [2]
CCCC(OC(=O)C(C)(C)CC)c1cc(C)cc(C)c1/C=C/[C@@H]1C[C@@H](O)CC(=O)O1 (relative stereo) [Example 1] | 1.7e-06 | 2.7e-06 | 
CCCCCCCCCC(OC(=O)C(C)(C)CC)c1cc(C)cc(C)c1/C=C/[C@@H]1C[C@@H](O)CC(=O)O1 (relative stereo) [Example 2, 2,2-Dimethylbutanoic acid[4α,6β(E)]-1-[2-[2-(tetrahydro-4-hydroxy-6-oxo-2H-pyran-2-yl)ethenyl]-3,5-dimethylphenyl]decyl ester] | > 0.0001 | > 0.001 | 
CCC(C)(C)C(=O)OC(c1ccccc1)c1cc(C)cc(C)c1/C=C/[C@@H]1C[C@@H](O)CC(=O)O1 (relative stereo) [Example 3, 2,2-Dimethylbutanoic acid[4α,6β,(E)]-[[3,5-dimethyl-[2-[2-tetrahydro-4-hydroxy-6-oxo-2H-pyran-2-yl]ethenyl]phenyl]phenylmethyl]ester] | 6.2e-06 | 0.0017 | 
CCC(C)(C)C(=O)OCc1cc(C)cc(C)c1/C=C/[C@@H]1C[C@@H](O)CC(=O)O1 (relative stereo) [Example 4] | 4e-05 | 5.7e-05 | 
CC[C@H](C)C(=O)O[C@H]1C[C@@H](C)C=C2C=C[C@H](C)[C@H](CC[C@@H]3C[C@@H](O)CC(=O)O3)[C@H]21 [Mevinolin, reference compound] | 5e-09 | 6e-07 | more effectively
CC[C@H](C)C(=O)O[C@H]1CCC=C2C=C[C@H](C)[C@H](CC[C@@H]3C[C@@H](O)CC(=O)O3)[C@H]21 [compactin] |  |  | could be inhibited
